Laboratory results published in patent US20180284123A1, “BARCODED RAPID ASSAY PLATFORM USEFUL FOR EFFICIENT ANALYSIS OF CANDIDATE MOLECULES AND METHODS OF MAKING AND USING THE PLATFORM” (California Institute of Technology, priority 2017, published 2018).
Numbered stars: 1 amine (or outer) side, 2 acyl side, 3 side chain; on linkers, the order of the positions; unused ones are H or OH. Bridge positions count the residues as written; N and C are the ends. Square brackets hold non-standard residues; d marks the D form. Triazole bridges read from a SMILES are 1,4-linked. Peptide text beside a SMILES is read from it. * marks the point of attachment. ξ: configuration not given here. Biotin = O=C1N[C@H]2[C@H](CS[C@H]2CCCCC(=O)*)N1; Lys(N3) = [N-]=[N+]=NCCCC[C@H](N)C(=O)O; ξLys(N3) = [N-]=[N+]=NCCCCC(N)C(=O)O; Ethylenediamine = C(CN[*:2])N[*:1]; PEG5 = NCCOCCOCCOCCOCCOCCC(=O)O; Pra = C#CC[C@H](N)C(=O)O

Assays:
[1] = molecular target: T1, KRAS (Homo sapiens, UniProt P01116); assay: B-RAP surface immunofluorescent assay, PCC ligand KRas EC50; type: binding; details: for Avg F635, Full Centroid / Avg F635, Full Lane / avg F635, Left Part Centroid / avg F635, Middle Part Centroid / avg F635, Right Part Centroid: 10 μM KRas well of plate #1, pixel by pixel; for avg F635, Left Part Centroid: left part of centroid; for avg F635, Middle Part Centroid: middle part of centroid; for avg F635, Right Part Centroid: right part of centroid
T1 construct: His6-tagged human KRas Isoform 4B (residues 1-169); His6; made in house; host or cells: E. coli BL21(DE3), PQE80 vector
T1 sequence (P01116 1-169 isoform P01116-2): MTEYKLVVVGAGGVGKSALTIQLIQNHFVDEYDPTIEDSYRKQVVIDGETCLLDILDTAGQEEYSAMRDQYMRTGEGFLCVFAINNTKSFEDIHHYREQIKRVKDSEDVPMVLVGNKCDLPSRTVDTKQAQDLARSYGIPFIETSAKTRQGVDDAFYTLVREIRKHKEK
Experimental: The barcode patterned microchip surface was partitioned into 16 individual microwells using a pre-fabricated PDMS slab. Individual biotinylated PCC candidates were complexed to specific SAC-DNA conjugates, combined into a cocktail, and then self-assembled, via DNA hybridization, onto designated barcode stripes (FIGS. 2-4). Incubation with a specific concentration of the target protein preceded incubation with a primary capture antibody and then a fluorophore-conjugated secondary detection antibody. During assay execution, each well represents a different target concentration or assay condition. Once developed, the fluorescence of the barcodes is digitized using a GenePix 4400A array scanner, with an excitation laser power optimized to a power level of 40% (60 W), which maximizes detection sensitivity while also minimizing signal saturation. Data extraction occurs using 10 μm radius circles, taken along the length of a barcode stripe. A fluorescence signal representing the average of all the pixels within a given circle is collected. A total of ten circles (data-blocks) are measured along a 180 μm span of the middle portion for each individual barcode lane in a given well. 10 μM KRas protein gave an average F635 of 47,868.7, with a standard deviation of 4154.53. 1 μM KRas protein gave an average F635 of 11437.6, with a standard deviation of 1602.202. 100 nM KRas protein gave an average F635 of 1780.6, with a standard deviation of 236.38. This illustrates the intensity across a stripe compared to the intensity from the data-block extraction. After extraction the data is background corrected. The background signal arises from (a) non-specific binding of the primary and secondary antibodies (independent of [KRas]), but can vary across different barcode stripes), and (b) non-specific binding of KRas protein ([KRas] dependent). Background (a) was assessed by measuring the average signal in the null protein well for each stripe. Background (b) was assessed by measuring the average fluorescence for the dummy ligand (Biotin* probe) that was in each well. The background subtracted data was then graphed in Graphpad Prism 7 and fitted to a sigmoidal curve (Hill coefficient=1).
Measurement of PCC Ligand KRas EC50 with the Barcode Rapid Assay Platform
Protein Incubation Buffer: Tris-buffered saline (TBS)+0.05% Tween20 (TBST)
A pre-fabricated PDMS template was aligned onto the DNA barcode microchip, and the microchip was taped into a 10 cm petri dish. The wells on the platform were wet with 50 μL PBST before filling with blocking buffer and placing into a 37° C. incubator for 1 hr. Concurrently, 40 μL 1% BSA in PBS solutions containing 750 nM of a SAC-DNA conjugate and 3.75 μM of one biotinylated PCC ligand or biotin-A20-Cy3 blank were prepared for each SAC-DNA conjugate. The biotinylated ligands were allowed to complex with the SAC protein for one hour before pooling the SAC-DNA-ligand solutions (final [SAC-DNA-ligand conjugates]=50 nM). The blocking buffer was aspirated and each well was loaded with the SAC-DNA-ligand conjugates cocktail for hybridization with the DNA barcode at 37° C. for one hour. The wells were washed with PBST (3×) before loading serially diluted solutions of KRas protein in protein buffer (0 to 400 μM). After shaking at RT for one hour, the wells were rinsed with PBST (5×), making sure to pipet up/down with the first addition of PB ST. A (100:1) dilution of CST rabbit anti-Ras Ab (#39655) in 1° ab buffer was added to each well before shaking at RT for one hour. After rinsing the wells with PBST (3×), the wells were loaded with a (200:1) dilution of Abcam goat anti-rabbit-Alexafluor 647 linked ab (ab150079) in 2° ab buffer before shaking at RT for one hour. A final rinse of the wells with PBST (3×) proceeded peeling off the PDMS slab from the barcode microchip and dipping the barcode into the following solutions: PBS, (1:1) PBS: MQ H2O, MQ H2O (2×). […]

[2] = molecular target: T1, KRAS; assay: GTPase Glo assay of intrinsic KRas GTPase activity; type: biochemical
Experimental: The intrinsic GTPase activity of WT KRas protein was measured using the GTPase-Glo Assay Kit (#V7681) from Promega Corporation (Madison, Wis.) on opaque white 96-well plates (#6005290) from Perkin Elmer Life Sciences (Waltham, Mass.). Luminescence was recorded on the Flexstation 3 plate reader used for multi-well ELISAs.
KRas inhibition assays were carried out using a GTPase Glo Assay kit from Promega. Each candidate inhibitor PCC was initially tested by combining a concentration series of the ligand with 10 μM KRas protein in an opaque white 96-well plate and incubated with 5 μM 5′-guanosine triphosphate (GTP) for two hours. The remaining GTP was […]. Chemiluminescence was measured using a Flexstation 3 plate reader (All wavelengths mode, 500 ms integration), and plotted using Graphpad Prism 7. […] All measurements were done in triplicate.
The GTPase assays were run in triplicate on a multi-well plate using the GTPase Glo Assay kit from Promega with 10 μM KRas protein and varying concentrations of ligand (1 μM to 100 μM L1a, L8 and 2.5 μM to 250 μM L2). All reagents were warmed to RT before use. A single opaque white 96-well plate was charged with 12.5 μL GTPase/GAP buffer (GTPase buffer w/ 1 mM DTT), 10 μM KRas in GTPase/GAP buffer, or 10 μM KRas protein with either L1a, L2, or L8. Running the survey assays on the same plate allowed for direct comparison of the curves, but it necessitated the use of the first row/column on the multi-well plate which introduced some noise to the low ligand concentration points. A 12.5 μL aliquot of a 2×GTP solution (10 μM rGTP in GTPase Buffer) was then added to each well before allowing the plate to shake at RT for two hours (initial GTPase inhibition assay). The GTPase Glo reagent was reconstituted in the GTPase Glo Buffer (4 μL GTPase Glo (500×) reagent, 1996 μL GTPase Glo Buffer, 1 μL 10 mM ADP) immediately before adding 25 μL to each well. Shaking at RT for thirty minutes preceded the addition of 50 μL of the Detection reagent to each well. The plate was covered and incubated for a total of ten minutes before reading the luminescence with a Flexstation 3 plate reader (All wavelengths mode, 500 ms integration time), graphed using Graphpad Prism 7 (Sigmoidal 4PL mode), and an IC50 value was calculated.
For the full GTPase inhibition curve for L2, the above procedure was followed with the change that the incubation with KRas occurred over or four hours rather than two.
Consequently, the best three ligand fractions L1a, L2, and L8 were probed in a functional, solution phase assay for their ability to disrupt the intrinsic GTPase enzymatic activity of KRas protein. This assay measures the enzymatic conversion of GTP to GDP by KRas—a process that can potentially be inhibited. After incubation, an added GTPase Glo™ reagent converts the remaining GTP to ATP, and the ATP is converted into a chemiluminescent signal. Thus, higher chemiluminescence translates to lower KRas enzymatic activity. For the measurements, a fixed [KRas protein] is incubated with varying ligand concentrations. A concentration of 10 μM KRas protein was selected after generating a standard curve for the intrinsic KRas GTPase activity. KRas is a slow acting enzyme, so a KRas/PCC incubation time of two hours was used for the initial survey scans, while four hour incubation times were used for the higher resolution data. […] Thus, the modulation of KRas activity by L2 was recorded with an expanded concentration range.

[3] = molecular target: T1, KRAS; assay: Multi-well ELISA, PCC ligand KRas EC50; type: binding; details: triplicate, KRas 0→300 μM, Hill coefficient=1
Experimental: Measurement of PCC Ligand KRas EC50 Using the Multi-Well ELISA Technology
A 96-well Pierce Neutravidin Plate was washed with binding buffer (3×5 minutes at RT) before loading plate with a 1 μM solution of either blank (biotin-PEG5-NHAc) (singly) or biotinylated PCC ligand (in triplicate). The plate incubated for two hours before washing with binding buffer (3×5 minutes). Blocking buffer was added to each well and the plate blocked for one hour before undergoing washing with binding buffer (3×5 minutes). Each well was loaded with either binding buffer or KRas solution (0→300 μM), and the plate was incubated for 30 minutes. Plate washing with binding buffer (3×5 minutes) preceded incubating the plate with a (1000:1) dilution of 1° antibody (ab) rabbit anti-Ras (CST #3965) in ab buffer for thirty minutes. The plate was washed with binding buffer (3×5 minutes), loaded with a (2000:1) dilution of 2° ab goat anti-rabbit, HRP-linked ab (CST #7074) in ab buffer, and incubated for an additional thirty minutes. […] After quenching the enzymatic reaction with 1M H2SO4(aq) (100 μL) the plate was read at λ=450 nm within ten minutes. The data was double background corrected using the ab only absorbance and the dummy ligand absorbance, plotted using Prism GraphPad 7 (Sigmoidal 4PL mode with the Hill coefficient set=1), and an EC50 value was calculated.

[4] = molecular target: T1, KRAS; assay: Barcoded rapid assay microchip binding curves of FIG. 6A/6B; details: fitted curves of FIG. 6B, Hill coefficient set to 1, triplicate
Experimental: FIG. 6A is a picture of a barcoded rapid assay microchip (60) following its use for binding curve assays of KRAS to candidate ligands. […] EC50 binding curves of 15 candidate ligands were simultaneously generated against the target protein KRAS. Each microwell (ovals) represents a distinct concentration of KRAS that was added (values are given above each well). All 15 candidate ligands were measured in triplicate in each microwell.
FIG. 6B is a graph of the EC50 binding curves generated from the barcoded rapid assay microchip of FIG. 6A. Images of the barcoded rapid assay microchip were digitized using a fluorescence image scanner and plotted as binding curves (61) for each of the candidate ligands. All binding curves were fitted to Hill functions, with the Hill coefficient set to 1.
A series of peptide ligands that were identified as candidate binders to the protein KRas, using known literature methods, were prepared according to the methods of FIG. 3, and assembled into the individual microwells of the barcoded rapid assay microchip as illustrated in FIG. 4. […] Fluorescence imaging of the individual wells was then used to generate a fluorescence intensity, vs KRAS concentration, for each of the individual candidate ligands. […]

[5] = survey assays, 10 μM KRas, two hour incubation

CCC(C)[C@@H]1NC(=O)CNC(=O)[C@H](Cc2cnc[nH]2)NC(=O)[C@@H](N)Cc2cn(nn2)CCCC[C@@H](C(=O)NCCOCCOCCOCCOCCOCCC(=O)NCCNC(=O)CCCC[C@@H]2SC[C@@H]3NC(=O)N[C@@H]32)NC(=O)CNC(=O)[C@H](C(C)C)NC1=O (single isomer, unassigned) [Ligand L1a, HGIVG]
Avg F635, Full Centroid [1]: 20134 | Avg F635, Full Lane [1]: 18768 | avg F635, Left Part Centroid [1]: 17838 | avg F635, Middle Part Centroid [1]: 20725 | avg F635, Right Part Centroid [1]: 21906 | effect on the KRas protein's GTPase activity [2, 5]: inhibitory effect

NC(=O)CC[C@@H]1NC(=O)[C@@H](N)Cc2cn(nn2)CCCC[C@@H](C(=O)NCCOCCOCCOCCOCCOCCC(=O)NCCNC(=O)CCCC[C@@H]2SC[C@@H]3NC(=O)N[C@@H]32)NC(=O)[C@H](Cc2ccc(O)cc2)NC(=O)[C@H](Cc2ccccc2)NC(=O)[C@H](CC(N)=O)NC(=O)[C@H](CC(=O)O)NC1=O (single isomer, unassigned) [Ligand L9a, QDNFY]
Avg F635, Full Centroid [1]: 18391 | Avg F635, Full Lane [1]: 16612 | avg F635, Left Part Centroid [1]: 14966 | avg F635, Middle Part Centroid [1]: 20262 | avg F635, Right Part Centroid [1]: 20045 | EC50 ([1]; 13-point KRas concentration series, each point in decaplicate, Hill coefficient=1): 5.43 ± 1 µM | EC50 [3]: 2.18 ± 2.7 µM | EC50 [4]: 6.55 µM

CC(C)[C@@H]1NC(=O)[C@@H]2CCCN2C(=O)[C@H](C(C)C)NC(=O)CNC(=O)[C@H](CCC(=O)O)NC(=O)[C@@H](N)Cc2cn(nn2)CCCCC(C(=O)NCCOCCOCCOCCOCCOCCC(=O)NCCNC(=O)CCCC[C@@H]2SC[C@@H]3NC(=O)N[C@@H]32)NC1=O (some centres unmarked) [Ligand L2, EGVPV] (H-[Pra]EGVPV[ξLys(N3)][PEG5]-{Ethylenediamine-Biotin}; triazole 1-7)
concentration above which ligand switches from weakly activating to strongly inhibiting ([2]; expanded concentration range, 10 μM KRas): above 20 μM | Hill coefficient of the titration curve ([2]; full inhibition curve, four-hour incubation): ~10 | rGTP hydrolyzed ([2]; ligand-only (no KRas) wells): Less than 5% | effect on the KRas protein's GTPase activity [2, 5]: inhibitory effect | relative potency as inhibitor of KRas GTPase activity [2, 5]: most potent

C[C@@H](O)[C@@H]1NC(=O)[C@@H](N)Cc2cn(nn2)CCCC[C@@H](C(=O)NCCOCCOCCOCCOCCOCCC(=O)NCCNC(=O)CCCC[C@@H]2SC[C@@H]3NC(=O)N[C@@H]32)NC(=O)[C@H](Cc2ccc(O)cc2)NC(=O)[C@H](Cc2ccccc2)NC(=O)[C@H](CC(N)=O)NC(=O)[C@H](CC(=O)O)NC1=O [Ligand L8, TDNFY] (H-[Pra]TDNFY[Lys(N3)][PEG5]-{Ethylenediamine-Biotin}; triazole 1-7)
effect on the KRas protein's GTPase activity [2, 5]: inhibitory effect
